The source of these data is patent US11427564B2, “Heteroaryl pyrimidine compound and pest control agent” (Nippon Soda Co., Ltd., priority 2017, dated 2022).

Bounds are passed on as bounds.

For data set [1], the system named is Aphis craccivora. The data set is described as follows: Efficacy test against Aphis craccivora (spray on cowpea plants). Type of data set: in vivo. The settings on record: 125 ppm sprayed on cowpea plants infested with nymphs; 25° C., humidity 60%; 4 days after spraying. As for the experimental part:
The insecticidal rate was calculated by the following formula. Insecticidal rate (%)=(number of dead insects/number of tested insects)×100 Cowpea plants were raised in No. 3 pots, and nymphs of Aphis craccivora were inoculated on the primary leaves. The emulsion (1) was diluted with water so that the concentration of the compound of the present invention was 125 ppm, and the diluent was sprayed on the cowpea plants infested with nymphs of Aphis craccivora. The cowpea plants were placed in a thermostatic chamber with a temperature of 25° C. and a humidity of 60%. […] The test was repeated twice.

Data set [2] concerns Plutella xylostella. The data set is described as follows: Efficacy test against Plutella xylostella (cabbage leaf immersion). The data set is classed as in vivo. The settings on record: 125 ppm, cabbage leaf immersed 30 seconds; second instar larvae; 25° C., humidity 60%; 3 days after insect release. As for the experimental part:
The insecticidal rate was calculated by the following formula. Insecticidal rate (%)=(number of dead insects/number of tested insects)×100 The emulsion (1) was diluted with water so that the concentration of the compound of the present invention was 125 ppm. A cabbage leaf was immersed in the diluent for 30 seconds. This cabbage leaf was placed in a petri dish. Five second instar larvae of Plutella xylostella were released therein. The petri dish was placed in a thermostatic chamber with a temperature of 25° C. and a humidity of 60%. […] The test was repeated twice.

Take `Br.CCS(=O)(=O)c1cnc(-c2ncccn2)nc1-c1ccc(O)cn1`: the melting point is 234 to 239 °C.

In the case of `CCS(=O)(=O)c1cnc(-c2ncn(C)n2)nc1-c1ccc(C(F)(F)C(F)(F)C(F)(F)C(F)(F)F)nn1`, the melting point fell in the range of 182 to 185 °C. The same measure, in the same setting: for `CCS(=O)(=O)c1cnc(N)nc1-c1ccc(C(F)(F)C(F)(F)C(F)(F)C(F)(F)F)nn1` the value was 186 to 188 °C. Consider `CCS(=O)(=O)c1cnc(NC(=O)C(F)(F)F)nc1-c1ccc(OCC(F)(F)C(F)(F)C(F)(F)F)cn1` [1-80], for which the insecticidal rate in data set [1] and in data set [2] was at least 80% in each case. `CCS(=O)(=O)c1cnc(-c2ncccn2)nc1-c1ccc(OCC(F)(F)F)nn1` [2-8] showed a melting point of 209 to 210 °C. `CCS(=O)(=O)c1cnc(O)cc1-c1ccc(OCC(F)(F)C(F)(F)F)cn1` [2-11] came in with a melting point of 212 to 214 °C.

For orientation: melting point means the temperature, or range, at which the solid turns liquid.
